Experimental data from ChEMBL document CHEMBL4619744, “Evaluation of nitrocatechol chalcone and pyrazoline derivatives as inhibitors of catechol-O-methyltransferase and monoamine oxidase” (Bioorg Med Chem Lett, 2020).

Legend:
[1] = target: T1, Amine oxidase [flavin-containing] B (Homo sapiens, UniProt P27338); assay: Inhibition of recombinant human MAOB using kynuramine as substrate by fluorescence based assay
T1 sequence (P27338 whole entry): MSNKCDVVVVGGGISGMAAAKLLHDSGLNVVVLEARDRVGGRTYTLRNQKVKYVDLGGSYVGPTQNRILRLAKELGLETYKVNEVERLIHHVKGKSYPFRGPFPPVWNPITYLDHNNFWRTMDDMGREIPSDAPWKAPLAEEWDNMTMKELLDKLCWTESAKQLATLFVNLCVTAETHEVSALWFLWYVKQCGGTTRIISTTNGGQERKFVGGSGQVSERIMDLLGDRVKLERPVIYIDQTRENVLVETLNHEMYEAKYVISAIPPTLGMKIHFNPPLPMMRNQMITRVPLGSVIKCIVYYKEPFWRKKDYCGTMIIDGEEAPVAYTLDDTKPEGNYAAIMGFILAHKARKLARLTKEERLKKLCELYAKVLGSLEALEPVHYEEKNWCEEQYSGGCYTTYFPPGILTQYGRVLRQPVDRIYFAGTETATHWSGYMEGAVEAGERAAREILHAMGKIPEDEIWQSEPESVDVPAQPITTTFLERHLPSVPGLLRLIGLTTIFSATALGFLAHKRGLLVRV

[2] = target: T2, Catechol O-methyltransferase (Rattus norvegicus, UniProt P22734); assay: Inhibition of rat liver COMT using esculetin as substrate by fluorescence based spectrophotometry
T2 sequence (P22734 whole entry): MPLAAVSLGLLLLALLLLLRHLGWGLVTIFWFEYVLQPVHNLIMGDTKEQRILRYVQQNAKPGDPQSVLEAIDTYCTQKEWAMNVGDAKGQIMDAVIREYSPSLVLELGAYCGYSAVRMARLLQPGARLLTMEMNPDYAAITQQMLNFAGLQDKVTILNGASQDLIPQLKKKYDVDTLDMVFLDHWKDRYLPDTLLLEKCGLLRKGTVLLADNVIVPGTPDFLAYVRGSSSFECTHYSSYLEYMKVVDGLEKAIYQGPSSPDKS

[3] = target: T3, Amine oxidase [flavin-containing] A (Homo sapiens, UniProt P21397); assay: Inhibition of recombinant human MAOA using kynuramine as substrate by fluorescence based assay
T3 sequence (P21397 whole entry): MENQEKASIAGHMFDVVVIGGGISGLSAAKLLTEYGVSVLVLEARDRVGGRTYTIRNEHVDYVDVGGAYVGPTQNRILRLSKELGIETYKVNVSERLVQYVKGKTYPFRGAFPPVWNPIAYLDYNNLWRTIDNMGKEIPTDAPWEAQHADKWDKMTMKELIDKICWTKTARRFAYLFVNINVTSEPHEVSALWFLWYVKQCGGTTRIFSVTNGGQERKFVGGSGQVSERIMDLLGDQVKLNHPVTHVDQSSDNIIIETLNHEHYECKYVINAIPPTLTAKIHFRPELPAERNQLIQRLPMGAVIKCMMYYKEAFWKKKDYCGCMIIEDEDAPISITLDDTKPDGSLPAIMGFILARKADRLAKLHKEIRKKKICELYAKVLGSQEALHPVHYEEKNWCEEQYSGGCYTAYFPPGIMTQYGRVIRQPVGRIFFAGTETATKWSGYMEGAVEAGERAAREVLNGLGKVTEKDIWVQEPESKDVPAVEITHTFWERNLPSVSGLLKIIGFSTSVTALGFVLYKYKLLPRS

[4] = target: T1, Amine oxidase [flavin-containing] B; assay: Inhibition of recombinant human MAOB expressed in insect cells measured after 20 mins by fluorescence spectrophotometry
[5] = target: T3, Amine oxidase [flavin-containing] A; assay: Inhibition of recombinant human MAOA expressed in insect cells measured after 20 mins by fluorescence spectrophotometry
[6] = target: T4, Catechol O-methyltransferase (Homo sapiens, UniProt P21964); assay: Inhibition of COMT (unknown origin)
T4 sequence (P21964 whole entry): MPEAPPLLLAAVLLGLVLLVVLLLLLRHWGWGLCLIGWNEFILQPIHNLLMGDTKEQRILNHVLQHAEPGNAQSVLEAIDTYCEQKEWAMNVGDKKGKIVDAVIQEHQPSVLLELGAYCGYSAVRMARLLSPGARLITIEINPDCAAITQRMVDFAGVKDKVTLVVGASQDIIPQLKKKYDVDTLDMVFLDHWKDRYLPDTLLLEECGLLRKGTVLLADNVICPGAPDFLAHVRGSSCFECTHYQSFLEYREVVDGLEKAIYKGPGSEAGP

[7] = target: T5, Catechol O-methyltransferase (Rattus norvegicus) (UniProt P22734); assay: Potency index, ratio of IC50 of 1-(3,4-dihydroxy-5-nitro-phenyl)-3-(3-methoxyphenyl)prop-2-en-1-one to IC50 of compound for inhibition of rat liver COMT using esculetin as substrate by fluorescence based spectrophotometry
T5 sequence (whole entry): T2 sequence (P22734 whole entry)

| Compound | IC50 [1] [µM] | IC50 [2] [µM] | IC50 [3] [µM] | IC50 [4] [µM] | IC50 [5] [µM] | IC50 [6] [µM] | Ratio IC50 [7] |
| --- | --- | --- | --- | --- | --- | --- | --- |
| CC(=O)N1N=C(c2cc(O)c(O)c([N+](=O)[O-])c2)CC1c1cccs1 (centres undefined) | 69.2 | 0.21 | 86.3 | – | – | – | – |
| CC(=O)N1N=C(c2cc(O)c(O)c([N+](=O)[O-])c2)CC1c1ccoc1 (centres undefined) | 126 | 0.18 | 90.9 | – | – | – | – |
| CC(=O)N1N=C(c2cc(O)c(O)c([N+](=O)[O-])c2)CC1c1cccc(O)c1 (centres undefined) | 85.2 | 0.075 | 87 | – | – | – | – |
| O=C(/C=C/c1cccc(Br)c1)c1cc(O)c(O)c([N+](=O)[O-])c1 | – | – | – | 13.9 | 76.1 | 0.29 | – |
| O=C(/C=C/c1ccoc1)c1cc(O)c(O)c([N+](=O)[O-])c1 | 71.4 | 0.29 | 52.9 | – | – | – | – |
| O=C(/C=C/c1ccco1)c1cc(O)c(O)c([N+](=O)[O-])c1 | 68.2 | 0.23 | 60.5 | – | – | – | – |
| CC(=O)N1N=C(c2cc(O)c(O)c([N+](=O)[O-])c2)CC1c1ccc(C#N)cc1 (centres undefined) | 83.2 | 0.048 | 76.6 | – | – | – | 1.46 |
| COc1cccc(/C=C/C(=O)c2cc(O)c(O)c([N+](=O)[O-])c2)c1 | – | – | – | – | 67.6 | 0.07 | – |
| CC(=O)N1N=C(c2cc(O)c(O)c([N+](=O)[O-])c2)CC1c1ccco1 (centres undefined) | 77.4 | 0.18 | 98 | – | – | – | – |
| CC(=O)N1N=C(c2cc(O)c(O)c([N+](=O)[O-])c2)CC1c1nccs1 (centres undefined) | 68.2 | 0.16 | 84.6 | – | – | – | – |

Continued by falling IC50 [1], values first:

| IC50 [1] [µM] | IC50 [2] [µM] | IC50 [3] [µM] | IC50 [4] [µM] | IC50 [5] [µM] | IC50 [6] [µM] | Ratio IC50 [7] | Compound |
| --- | --- | --- | --- | --- | --- | --- | --- |
| 66.2 | 0.29 | 51.5 | – | – | – | – | Cn1cc(/C=C/C(=O)c2cc(O)c(O)c([N+](=O)[O-])c2)cn1 |
| 62.9 | 0.19 | 49.9 | – | – | – | – | O=C(/C=C/c1cccs1)c1cc(O)c(O)c([N+](=O)[O-])c1 |
| 60.6 | 0.24 | 58.9 | – | – | – | – | N#Cc1cccc(/C=C/C(=O)c2cc(O)c(O)c([N+](=O)[O-])c2)c1 |
| 59.2 | 0.24 | 69.6 | – | – | – | – | O=C(/C=C/c1nccs1)c1cc(O)c(O)c([N+](=O)[O-])c1 |
| 56.6 | 0.18 | 45.3 | – | – | – | – | N#Cc1ccc(/C=C/C(=O)c2cc(O)c(O)c([N+](=O)[O-])c2)cc1 |
| 55.8 | 0.14 | 43.9 | – | – | – | – | O=C(/C=C/c1cccc(O)c1)c1cc(O)c(O)c([N+](=O)[O-])c1 |
| 55.4 | 0.079 | 70.6 | – | – | – | – | CC(=O)N1N=C(c2cc(O)c(O)c([N+](=O)[O-])c2)CC1c1cccc(C#N)c1 (centres undefined) |
| 42.1 | 0.23 | 41.4 | – | – | – | – | O=C(/C=C/c1ccsc1)c1cc(O)c(O)c([N+](=O)[O-])c1 |
